{"source": "patent US7531164B2", "about": "(priority 2005, dated 2009)", "key": {"[1]": {"experiment": "Working Example XIV: unstable angina patient, abciximab plus NO inhibitor/scavenger", "format": "in vivo, human", "conditions": "L-NMA (5g) or 10 mg vitamin B-12 IV with abciximab and heparin; at 30 days", "description": "A patient with unstable angina presents to the emergency room.\nAbciximab is administered at 0.25 mg/kg as an intravenous bolus followed by infusion of […] for 12 hours. Heparin is concurrently administered in a different line with an initial dosage of 70 μg/kg with continuing infusion to maintain ACT of 200-300.\nL-NMA (5g) or 10 mg vitamin B-12 is administered IV through a different line.\nNeed for urgent revascularization is only 2% at 30 days."}, "E.coli and HIV": {"system": "E.coli and HIV", "experiment": "Working Example II: prophylaxis after exposure to blood infected by E.coli and HIV", "format": "in vivo, human", "conditions": "B12 10 mg with AZT 600 mg and ampicillin 1 gm for 6 days; at a week", "description": "A patient is exposed to blood infected by “E.coli” and HIV following coronary artery bypass surgery. AZT (prophylactic dose of 600 mg) and B12 (which scavenges NO) (dose 10 mg) are given in combination with ampicillin (prophylactic dose of 1 gm) for 6 days Bacterial and HIV titer are undetectable at a week."}, "[2]": {"system": "EGFR expressing metastatic colorectal cancer", "experiment": "Working Example XIII: EGFR expressing metastatic colorectal cancer patient", "format": "in vivo, human", "conditions": "5 gm L-NMA or 10 mg vitamin B12 infused concurrently with cebuximab", "description": "A person with EGFR expressing metastatic colorectal cancer is given an initial loading dose of 400 mg/m^2 cebuximab as a 120 minute infusion at 2.5 mL/min with weekly maintenance doses of 250 mg/M^2 over 60 minutes at 2.5 mL/min. Concurrently the patient is infused with 5 gm L-NMA or 10 mg vitamin B12."}, "colon cancer": {"system": "colon cancer", "experiment": "Working Example III: prophylaxis of colon cancer in immunocompromised patient", "format": "in vivo, human", "conditions": "5 gm LNMA or 10 mg vitamin B12 infused concurrently with cetuximab; two years later", "description": "An immunocompromised patient at risk for colon cancer is given an initial loading dose of 200 mg/M^2 cetuximab as a 120 minute infusion with weekly maintenance doses of 125 mg/M^2 over 60 minutes weekly. Perfusion rate is 4 mL/min. Concurrently the patient is infused with 5 gm LNMA or 10 mg vitamin B12.\nFor each 50 ml vial: • 100 mg cetuximab • at a concentration of 2 mg/ml • 1mg LNMA or 2 mg Vitamin B-12 • 8.48 mg/ml sodium chloride • 1.88 mg/ml sodium phosphate dibasic heptahydrate • 0.42 mg/ml sodium phosphate monohydrate • water for injection to […]\nThe composition is administered in the case of Working Example III."}, "[3]": {"experiment": "Working Example XII: atherosclerosis patient, anti-VEGFR plus NO inhibitor/scavenger", "format": "in vivo, human", "conditions": "2 gms/day L-NMA or 10 mg/day vitamin B-12 with 100 mg/kg anti-VEGFR three times a week; six months later", "description": "A person with atherosclerosis is administered 100 mg/kg anti-VEGFR three times a week via infusion and 2 gms/day of L-NMA or 10 mg/day vitamin B-12."}, "AMLV": {"system": "AMLV", "format": "cell-based", "conditions": "AMLV envelope"}, "VSV": {"system": "VSV", "format": "cell-based"}, "HIV (denoted NL4-3)": {"system": "HIV (denoted NL4-3)", "format": "cell-based", "conditions": "NL4-3 envelope"}, "influenza A": {"system": "influenza A", "experiment": "Working Example XVII: prophylaxis in immunocompromised patient exposed to influenza", "format": "in vivo, human", "conditions": "5 gms/day L-NMA p.o. for one week, then amantadine 100 mg p.o. b.i.d. for two weeks", "description": "An immunocompromised patient is exposed to a patient diagnosed with influenza. The patient is given 5 gms/day L-NMA p.o. After one week the patient tests positive for influenza A and L-NMA administration is stopped and the patient is given amantadine, 100 mg p.o., b.i.d. for two weeks."}, "[4]": {"experiment": "Working Example V: asthma exacerbation frequency", "format": "in vivo, human", "conditions": "1 gm/day LNMA four times a week for a year; normally four exacerbations of asthma per year", "source_text": "An asymptomatic person who normally has four exacerbations of asthma per year is given 1 gm/day LNMA four times a week for a year. Exacerbation frequency decreases to once a year."}, "[5]": {"experiment": "Working Example IV: beta agonist response in heart failure patient", "format": "in vivo, human", "conditions": "0.1 mg/kg LNMA for 24 hours; improves from 3 L/min", "description": "A person with heart failure is admitted to a hospital for a dobutamine holiday (where a congestive heart failure patient spends 1-2 days in the hospital to receive a dobutamine drip every month or so). The patient is administered 0.1 mg/kg LNMA for 24 hours. Beta agonist sensitive response as measured by cardiac output improves from 3 L/min. to 3.5 L/min."}, "HIV": {"system": "HIV", "experiment": "Working Example I: prophylaxis after exposure to HIV positive partner", "format": "in vivo, human", "conditions": "1 gm L-NMMA Q 6 hrs for 3 days with AZT 600 mg; day 7", "description": "A person finds that their partner the previous night is HIV positive. They present to the Emergency Room where they are given a prophylactic dose of AZT (600 mg dose) and a dose of 1 gm L-NMMA Q 6 hrs for 3 days. Blood titers for HIV are restive at day 7."}, "hepatitis C": {"system": "hepatitis C", "experiment": "Working Example XI: transfusion of hepatitis C infected whole blood containing L-NMA", "format": "in vivo, human", "conditions": "whole blood containing 1 gm L-NMA per unit, infected with hepatitis C", "source_text": "Whole blood containing 1 gm L-NMA per unit is transfused into a patient."}, "[6]": {"conditions": "compared to envelope protein with no anti-CD4 or inhibitor"}}, "data": [{"molecule": "C/C1=C2/[N-][C@H]([C@H](CC(N)=O)[C@@]2(C)CCC(=O)NC[C@@H](C)OP(=O)([O-])O[C@H]2[C@@H](O)[C@@H](n3cnc4cc(C)c(C)cc43)O[C@@H]2CO)[C@]2(C)N=C(/C(C)=C3N=C(/C=C4N=C1[C@@H](CCC(N)=O)C\\4(C)C)[C@@H](CCC(N)=O)[C@]\\3(C)CC(N)=O)[C@@H](CCC(N)=O)[C@]2(C)CC(N)=O.[Co+3].[OH-]", "note": "[vitamin B12, hydroxocobalamin]", "values": [{"measurement": "Need for urgent revascularization", "setting": "[1]", "result": 2, "unit": "%"}, {"measurement": "Bacterial and HIV titer", "setting": "E.coli and HIV", "result": "undetectable"}, {"measurement": "disease related symptoms", "setting": "[2]", "result": "Improvement in disease related symptoms is noted"}, {"measurement": "colon cancer status", "setting": "colon cancer", "result": "colon cancer free"}, {"measurement": "plaque destabilization and heart attack", "setting": "[3]", "result": "plaque is not destabilized and no heart attack has occurred"}]}, {"molecule": "COC(=O)[C@@H](N)CCCNC(=N)N[N+](=O)[O-]", "note": "[Inhibitor A, N^G-nitro-L-arginine methyl ester]", "values": [{"measurement": "Mean (cells infected)", "setting": "AMLV; […], no-inhibitor AMLV mean 164904", "result": 60090}, {"measurement": "% Infection", "setting": "AMLV; [6]", "result": 36.4, "unit": "%"}, {"measurement": "% Infection", "setting": "VSV", "result": 41.9, "unit": "%"}, {"measurement": "Mean (cells infected)", "setting": "VSV", "result": 120209}, {"measurement": "Mean (cells infected)", "setting": "HIV (denoted NL4-3); […], no-inhibitor NL4-3 mean 108400, cells only 66", "result": 50359}, {"measurement": "% Infection", "setting": "HIV (denoted NL4-3); [6]", "result": 46.5, "unit": "%"}]}, {"molecule": "CNC(=N)NCCC[C@H](N)C(=O)O", "note": "[L-NMA, L-methylarginine]", "values": [{"measurement": "Need for urgent revascularization", "setting": "[1]", "result": 2, "unit": "%"}, {"measurement": "Flu symptoms", "setting": "influenza A", "result": "Flu symptoms disappear"}, {"measurement": "Exacerbation frequency", "setting": "[4]", "result": "once a year"}, {"measurement": "disease related symptoms", "setting": "[2]", "result": "Improvement in disease related symptoms is noted"}, {"measurement": "Beta agonist sensitive response as measured by cardiac output", "setting": "[5]", "result": 3.5, "unit": "L/min"}, {"measurement": "colon cancer status", "setting": "colon cancer", "result": "colon cancer free"}, {"measurement": "Blood titers for HIV", "setting": "HIV", "result": "restive"}, {"measurement": "development of hepatitis C", "setting": "hepatitis C", "result": "does not develop hepatitis C"}, {"measurement": "plaque destabilization and heart attack", "setting": "[3]", "result": "plaque is not destabilized and no heart attack has occurred"}]}]}
